What was measured:
[1] = test system: patients with moderate to severe AA; test: Open-label trial of oral ruxolitinib in 12 patients with moderate to severe AA: hair regrowth (SALT); type: in vivo, human
Source text: (§1) The study's primary efficacy endpoint was the proportion of responders at end of treatment, defined as those subjects achieving at least 50% regrowth compared to baseline assessed by the Severity of Alopecia Tool (SALT) score, a standardized, validated method for estimating hair loss in AA. Secondary efficacy endpoints included hair re-growth as a continuous variable. […] To assess response durability, responders were followed for 3 months after treatment was completed. Safety analysis was included as a secondary endpoint for all subjects who received at least one dose of ruxolitinib and was monitored as described at monthly visits.

[2] = test system: patients with moderate to severe AA; test: Adverse events in ruxolitinib trial; conditions: in vivo
Source text: as §1
Adverse events were assessed at every monthly visit. Patients were also encouraged to contact the study center in the interim between visits if they developed new signs or symptoms of concern.

[3] = test system: patients with moderate to severe AA; test: Oral ruxolitinib in three patients with moderate to severe AA (hair regrowth, biopsies); type: in vivo, human
Procedure: Skin punch biopsies (4 mm) were obtained at baseline and after 12 weeks of treatment.
For immunohistochemical studies of human skin, 5 μM formalin fixed and paraffin skin section were used. […] ImmPRESS HRP Anti Rabbit Ig or Mouse Ig (Peroxidase) Polymer (Vector Lab) were used as secondary antibody.
The IFN and CTL signatures were used to develop a bivariate score statistic. Individual signature IFN and CTL scores were determined following procedures used in human SLE. The sets of genes selected to comprise the IFN and CTL signatures were CD8A, GZMB, and ICOS for the CTL signature, and CXCL9, CXCL10, CXCL11, STAT1, and MX1 for the IFN signature.

[4] = test system: ALADIN CTL, IFN and KRT signatures; test: Skin biopsy gene expression / ALADIN scores in ruxolitinib trial; type: in vivo, human
Source text: Biopsies and peripheral blood were obtained at baseline and after 12 weeks for immune monitoring and molecular studies. Several patients provided additional biopsies at intermediate time points during the course of treatment, and one patient provided an additional sample at week 24. Tissues specimens were fixed and stored in PAXgene Tissue Containers. Total RNA was extracted from skin biopsy specimens harvested during the course of the clinical trial using the PAXgene tissue miRNA kit. Library prep was performed for microarray analysis using Ovation RNA Amplification System V2 and Biotin Encore kits (NuGen Technologies, Inc., San Carlos, Calif.). Samples were subsequently hybridized to Human Genome U133 Plus 2.0 chips (Affymetrix, Santa Clara, Calif.) and scanned at the Yale Center for Genome Analysis. Library prep and microarray hybridization of RNA extracted from skin biopsies from three healthy controls were performed together with the samples from the treated patients for a total of 31 samples. Gene expression analyses included calculation of ALADIN scores, differential expression analysis of the expression levels for the identification of gene expression signatures, principal component analysis, and statistical analysis of the ALADIN scores. Microarray data from the 31 samples have been deposited in GEO under accession number GSE80342.
ALADIN scores were calculated for all […] using the batch corrected expression data. The CTL, IFN, and KRT ALADIN scores were determined following procedures outlined previously. Briefly, z-scores are calculated for each PSID relative to the mean and standard deviation of normal controls. Scores for each gene are obtained by averaging z-scores of PSIDs mapping to that gene. Signature scores are then calculated averages of the scores for genes belonging to the corresponding signature.
In order to examine possible differences between each of the CTL, IFN, and KRT ALADIN scores in responders and non-responders, in responders and normal controls and in non-responders and normal controls, the inventors tested for differences among the three groups using a Kruskal-Wallis test, followed by Wilcoxon Rank Sum tests as implemented in the coin package in R. The inventors then examined the change between baseline and ALADIN scores at 12 weeks for responders using Wilcoxon Signed Rank test as implemented in the coin package in R. The inventors further tested for differences in the three scores between responders at 12 weeks and normal controls.

dermal sheath cells = test: CTL killing of dermal sheath cells; type: cell-based, mouse
[5] = test system: CTL effectors from C3H/HeJ mice; test: IL-15 responses in cultured CTL effectors; type: cell-based, mouse
[6] = test system: C3H/HeJ mice with long-standing AA; test: Topical treatment of established AA in grafted C3H/HeJ mice; type: in vivo, mouse; conditions: applied to back skin
Source text: This experiment was repeated three times. […] NS, not significant. […] Scale bar, 100 μm. […] Scale bar, 200 μm.
Only female mice were used.

[7] = test system: ALADIN IFN and CTL signatures; test: ALADIN scores of scalp biopsies in tofacitinib-treated AA patient; type: in vivo, human; conditions: baseline vs 4 weeks of treatment
Procedure: (§2) Punch biopsies of the scalp (FIG. 17) and blood draws were performed at baseline and after 4 weeks of treatment to monitor gene expression and biomarker changes. […] In addition, microarray analysis was performed on the skin biopsy samples.

[8] = test system: patient with persistent moderate/severe AA; test: Oral tofacitinib in one patient with persistent moderate/severe AA (hair regrowth, safety)
[9] = test system: C3H/HeJ grafted mice with established AA; test: Systemic treatment of established AA in grafted C3H/HeJ mice; type: in vivo, mouse
Source text: C3H/HeJ mouse strain (Jackson Laboratories, Bar Harbor, Me.) was used for all animal studies. Only female mice were used. Mouse recipients of alopecic skin grafts were aged 7-10 weeks at the time of grafting. For prevention experiments, drug administration began the day after grafting. […] For topical treatment studies, drug administration was initiated 20 weeks following grafting. All animal procedures were done according to protocols approved by the Columbia University Medical Center Institutional Animal Care and Use Committee.

CXCL10 = test: Serum CXCL10 ELISA in tofacitinib-treated AA patient; type: in vivo, human; conditions: baseline vs 4 weeks of treatment
Procedure: as §2

C3H/HeJ grafted mice = test: Prevention of AA in C3H/HeJ skin graft model, systemic treatment from time of grafting; type: in vivo, mouse; conditions: systemic administration from the time of grafting
Source text: IL-2 and IL-15 are well-known drivers of cytotoxic activity by IFN-γ-producing CD8+ effector T cells and NK cells and have been implicated in the induction and/or maintenance of autoreactive CD8+ T cells. To test the efficacy of IFN-γ- and γ c-targeted therapies in vivo, the inventors used the well-established graft model of AA, in which skin grafts from mice with spontaneous AA are transferred onto the backs of unaffected 10-week-old recipient C3H/HeJ mice. In this model, AA develops reliably in 95-100% of grafted recipients within 6-10 weeks, allowing us to test interventions aimed at either preventing or reversing disease.
C3H/HeJ mouse strain (Jackson Laboratories, Bar Harbor, Me.) was used for all animal studies. Only female mice were used. Mouse recipients of alopecic skin grafts were aged 7-10 weeks at the time of grafting. For prevention experiments, drug administration began the day after grafting. For systemic treatment studies, drug administration was initiated approximately 3 months after mice lost their hair. For topical treatment studies, drug administration was initiated 20 weeks following grafting. […]
For the prevention experiments, a time-to-event survival analysis for interval censored data was performed. […] Hair growth index was calculated.

[10] = systemic therapy initiated 7 weeks after grafting

N#CC[C@H](C1CCCC1)n1cc(-c2ncnc3[nH]ccc23)cn1 [ruxolitinib]
proportion of patients achieving the primary outcome of at least 50% regrowth ([1]; 20 mg PO twice daily, 3 to 6 months, nine of twelve patients): 75%
mean SALT score at 3 months ([1]; baseline 65.8±28.0%): 24.8±22.9%
mean SALT score at the end of 6 months of treatment ([1]; baseline 65.8±28.0%, p<0.004): 7.3±13.5%
average hair regrowth at the end of treatment ([1]; nine responding patients): 92%
reduction in hair loss from baseline, responders as a group ([1]; responders): 92%
URI/allergy symptoms ([2]; human): 9 episodes
GI symptoms [2]: mild GI symptoms
UTI [2]: one UTI
acne or scalp folliculitis [2]: Two patients developed lesions consistent with acne or scalp folliculitis
bacterial skin infections [2]: three minor bacterial skin infections (in the same patient)
conjunctival hemorrhage [2]: one conjunctival hemorrhage following a surgical procedure
discontinuation of therapy [2]: no patients required discontinuation of therapy
hemoglobin [2]: One patient developed lowered hemoglobin, which resolved with dose modification
hepatic abnormalities [2]: No hepatic abnormalities were observed
platelet counts [2]: No significant decline in platelet counts
pneumonia [2]: one mild pneumonia
serious adverse effects [2]: no serious adverse effects
white blood cell counts [2]: modest declines of white blood cell counts initially but levels remained within normal limits
regrowth achieved ([3]; oral 20 mg BID for at least 3 months): over 90%
time to near-complete hair regrowth ([3]; oral, 20 mg twice daily): 3 to 5 months
CTL score at week 12, overall ([4]; all patients, baseline 8.30, p<0.004): 1.51
IFN score at week 12, overall ([4]; all patients, baseline 31.08, p<0.004): −0.37
KRT score at week 12, overall ([4]; all patients, baseline −39.36, p=0.054): −15.02
CTL score at week 12, responders only ([4]; baseline 9.37, p<0.008): 1.6
IFN score at week 12, responders only ([4]; baseline 38.37, p<0.008): 0.24
KRT score at week 12, responders only ([4]; baseline −37.84, p=0.039): −15.42
earliest time decreased IFN and CTL scores were demonstrable after the initiation of treatment ([4]; post-treatment biopsies): 2 weeks

C[C@@H]1CCN(C(=O)CC#N)C[C@@H]1N(C)c1ncnc2[nH]ccc12 [tofacitinib]
killing of dermal sheath cells (dermal sheath cells): blocked
IL-15-induced upregulation of granzyme B and IFN-γ expression [5]: blocked
IL-15-triggered pSTAT5 activation ([5]; cultured CTL effectors): blocked
reversal of disease in treated lesions [6]: highly effective in reversing disease in treated lesions
IFN and CTL signatures (ALADIN) [7]: decreased by 4 weeks of treatment, although not to the level of normal controls
hair loss 8 weeks following cessation of treatment ([8]; FIG. 16 left panel): Minimal hair loss
hair loss 16 weeks following cessation of treatment ([8]; FIG. 16 right panel): almost complete loss of scalp hair
outcome after cessation of treatment ([8]; human, in vivo): near-complete hair loss
adverse events ([8]; oral 5 mg twice daily): no adverse events reported
hair regrowth at month 1 ([8]; oral 5 mg twice daily): Patchy regrowth
laboratory abnormalities (complete blood count, complete metabolic panel, lipid profile) ([8]; oral 5 mg twice daily): no laboratory abnormalities
regrowth of eyebrows and eyelashes ([8]; oral 5 mg twice daily): Significant regrowth
scalp hair regrowth 4 months after initiating treatment ([8]; oral 5 mg twice daily): nearly complete
scalp hair regrowth after three months of treatment ([8]; oral 5 mg twice daily): 94%
scalp hair regrowth after two months of treatment ([8]; oral 5 mg twice daily): 62.5%
persistence of effects after the cessation of treatment ([9]; systemic therapy): 2-3 months
frequency of CD8+NKG2D+ T cells [9, 10]: reduced the frequency of CD8+NKG2D+ T cells
hair regrowth [9, 10]: substantial hair regrowth all over the body
histological markers [9, 10]: reversed histological markers
serum levels of CXCL10 (CXCL10): decreased after 4 weeks of treatment
AA development in grafted recipients (C3H/HeJ grafted mice): prevented the development of AA
CD8+NKG2D+ T cells in the skin (infiltration, accumulation, expansion) (C3H/HeJ grafted mice): prevented

— patent publication US20190072541A1, “BIOMARKERS FOR TREATMENT OF ALOPECIA AREATA” (THE TRUSTEES OF COLUMBIA UNIVERSITY IN THE CITY OF NEW YORK, priority 2015, published 2019)
